How the values were obtained:
[1] = test system: K562; assay: Induction of erythroid differentiation in Homo sapiens (human) K562 cells assessed as benzidine-positive cells at IC50 after 6 days; assay type: functional
[2] = test system: K562; assay: Induction of erythroid differentiation in Homo sapiens (human) K562 cells assessed as benzidine-positive cells at IC50 after 4 days; assay type: functional
[3] = test system: L1210; assay: Ratio of distamycin-A IC50 to compound IC50 for Mus musculus (mouse) L1210 cells; assay type: functional
[4] = test system: K562; assay: Cytotoxicity against Homo sapiens (human) K562 cells after 72 hr; assay type: functional, cell-based; conditions: K562, 72 h
[5] = test system: L1210; assay: Cytotoxicity against Mus musculus (mouse) L1210 cells after 72 hr; assay type: functional, cell-based; conditions: L1210, 72 h

Row | SMILES | Activity [1] | Activity [2] | Ratio IC50 [3] | IC50 [4] | IC50 [5]
1 | Cn1cc(NC(=O)c2cc(NC(=O)c3cc(N(CC4CO4)CC4CO4)cn3C)cn2C)cc1C(=O)NCCC(N)=O (stereo not given) | 16% | 15% | 4 | 25 µM | 35 µM
2 | Cn1cc(NC(=O)c2cc(NC(=O)c3cc(N(CC4CO4)CC4CO4)cn3C)cn2C)cc1C(=O)NCC/C(N)=N/O (stereo not given) | 13% | 11% |  | 12 µM | 18 µM
3 | Cl.Cl.Cn1cc(NC(=O)c2cc(NC(=O)c3cc(NC=O)cn3C)cn2C)cc1C(=O)NCCC(=N)N | 10% | 8% |  | 10 µM | 50 µM
4 | Cn1cc(NC(=O)c2cc(NC(=O)c3cc(N)cn3C)cn2C)cc1C(=O)NCC/C(N)=N/C#N |  |  |  | > 50 µM | > 50 µM
5 | CNC(=O)CCNC(=O)c1cc(NC(=O)c2cc(NC(=O)c3cc(N(CC4CO4)CC4CO4)cn3C)cn2C)cn1C (stereo not given) | 15% | 12% | 4 | 25 µM | 38 µM
6 | Cn1cc(NC(=O)c2cc(NC(=O)c3cc(N)cn3C)cn2C)cc1C(=O)NCCC(N)=O |  |  |  | 45 µM | > 50 µM
7 | Cn1cc(NC(=O)c2cc(NC(=O)c3cc(N(CC4CO4)CC4CO4)cn3C)cn2C)cc1C(=O)NCC/C(N)=N/C#N (stereo not given) | 65.3% | 46.3% |  | 1 µM | 6.3 µM
8 | Cn1cc(NC(=O)c2cc(NC(=O)c3cc(N)cn3C)cn2C)cc1C(=O)NCC/C(N)=N/O |  |  |  | > 50 µM | > 50 µM
9 | CNC(=O)CCNC(=O)c1cc(NC(=O)c2cc(NC(=O)c3cc(N)cn3C)cn2C)cn1C |  |  |  | > 50 µM | > 50 µM

— ChEMBL document CHEMBL3046372, “Design, Synthesis and Growth Inhibition Activity of Bis-Epoxyethyl Derivatives of Stallimycin Modified on the Amidino Moiety” (Med Chem Res, 2004)
